# Data from US20180360025A1, “ARTICLE OF MANUFACTURE AND METHODS FOR INCREASING SURVIVAL OF RED BLOOD CELLS” (Ramot at Tel-Aviv University Ltd., priority 2015, published 2018).
# System: CytoD-treated RBC
# Assay: Recovery of CytoD-treated RBCs (Wright Giemsa stain and immunofluorescence)
# Format: cell-based, human
# Conditions: CytoD 3 h, immunofluorescence
# Method: Cytochalasin D (CytoD) is known to inhibit actin polymerization or depolymerization at barbed ends. The recovery effects of Wnts CM in RBCs was tested after incubation with CytoD in order to evaluate the potential effect of Wnt3/5 on polymerized actin in RBCs (FIGS. 12A-B). As show in FIGS. 12A-B, RBCs incubated with a medium containing Cyto D for 3 h, and then with Wnt 3/5 CM (in the absence of CytoD) for 6 h, were stained using two different methods. […] (FIG. 12B).
compound,measurement,value
"C=C1[C@@H](C)[C@H]2[C@H](Cc3ccccc3)NC(=O)[C@]23[C@H](OC(C)=O)/C=C/[C@@](C)(O)C(=O)[C@@H](C)C/C=C/[C@H]3[C@@H]1O [CytoD, Cytochalasin D]",actin state in RBCs after CytoD treatment,aggregates of cytoplasm actin
